Assay results as given in ChEMBL document CHEMBL4483862, “Open-source discovery of chemical leads for next-generation chemoprotective antimalarials” (2018).

Tested on: Plasmodium berghei
Experiment: Luciferase/luciferin-expressing antifolate-resistant parasites were used to infect a culture of HepG2 cells that were pre-incubated with compounds. Infected hepatocytes emit light due to the luciferase reaction. Assay results are presented as the percent inhibition of light emission compared to control. […]
Type: functional
Details: sporozoite; for IC90: read-out: LUCIFERASE INFECTION ASSAY - IC90

| SMILES | IC90 | further results |
| --- | --- | --- |
| COc1ccccc1N1C(C)=CC(=C(C#N)c2nc3ccccc3s2)C=C1C | > 10 µM | IC50 (FFLUC_HILL_SLOPE 10.1, FFLUC_R_SQUARED 0.663, HEPG2TOX_HILL_SLOPE 9.46, HEPG2TOX_R_SQUARED 0.504, PBLUC_HILL_SLOPE 1.94, PBLUC_R_SQUARED 0.582, read-out: LUCIFERASE INFECTION ASSAY - IC50): 3.83 µM |
| C=CCn1c(SCc2cn3c(C)cccc3n2)nc2sc(C)c(C)c2c1=O | > 10 µM | IC50 (FFLUC_HILL_SLOPE 10.3, FFLUC_R_SQUARED 0.131, HEPG2TOX_HILL_SLOPE 7.8, HEPG2TOX_R_SQUARED 0.483, read-out: LUCIFERASE INFECTION ASSAY - IC50): > 10 µM |
| COc1cc(/C=C2\C(=O)c3ccccc3S(=O)(=O)N2C(C)C)ccc1O | 2.85 µM | IC50 (FFLUC_HILL_SLOPE 10, FFLUC_R_SQUARED 0.0898, HEPG2TOX_HILL_SLOPE 4.33, HEPG2TOX_R_SQUARED 0.977, PBLUC_HILL_SLOPE 2.02, PBLUC_R_SQUARED 0.77, read-out: LUCIFERASE INFECTION ASSAY - IC50): 0.957 µM |
| Cc1ccc(-n2c(C)cc(C(=O)CN(c3ccccc3)S(=O)(=O)c3ccc(F)cc3)c2C)cc1C | > 10 µM | IC50 (FFLUC_HILL_SLOPE 9.87, FFLUC_R_SQUARED 0.464, read-out: LUCIFERASE INFECTION ASSAY - IC50): > 10 µM |
| CCCCCCCCCCCc1nnc(SCc2ccc(Cl)cc2)n1-c1ccccc1C(F)(F)F | > 6.3 µM | IC50 (FFLUC_HILL_SLOPE 9.94, FFLUC_R_SQUARED 0.653, read-out: LUCIFERASE INFECTION ASSAY - IC50): > 6.3 µM |
| C=CCn1c(SCC(=O)Nc2sc(C)c(C)c2C(=O)OCC)nc2scc(-c3ccc(OC)cc3)c2c1=O | > 10 µM | IC50 (FFLUC_HILL_SLOPE 9.8, FFLUC_R_SQUARED 0.347, HEPG2TOX_HILL_SLOPE 0.0825, HEPG2TOX_R_SQUARED 0.0539, PBLUC_HILL_SLOPE 3.18, PBLUC_R_SQUARED 0.293, read-out: LUCIFERASE INFECTION ASSAY - IC50): 5.66 µM |
| C=CCn1c2ccccc2c2ccccc21 | > 15.9 µM | IC50 (FFLUC_HILL_SLOPE 10.4, FFLUC_R_SQUARED 0.117, read-out: LUCIFERASE INFECTION ASSAY - IC50): > 15.9 µM |
| Brc1cnc(N2CCN(C(c3ccccc3)(c3ccccc3)c3ccccc3)CC2)nc1 | > 6.8 µM | IC50 (FFLUC_HILL_SLOPE 9.83, FFLUC_R_SQUARED 0.0243, read-out: LUCIFERASE INFECTION ASSAY - IC50): > 6.8 µM |
| COc1cc(Cl)c(C)cc1-n1c(SCc2nnc(-c3cccs3)o2)nc2ccccc2c1=O | > 10 µM | IC50 (FFLUC_HILL_SLOPE 9.81, FFLUC_R_SQUARED 0.743, PBLUC_HILL_SLOPE 8.4, PBLUC_R_SQUARED 0.579, read-out: LUCIFERASE INFECTION ASSAY - IC50): 8.6 µM |
| Cc1ccc(-c2nc(SCc3nc(=O)c4c(-c5ccccc5)csc4[nH]3)[nH]c2-c2ccc(C)cc2)cc1 | > 10 µM | IC50 (FFLUC_HILL_SLOPE 10.3, FFLUC_R_SQUARED 0.755, read-out: LUCIFERASE INFECTION ASSAY - IC50): > 10 µM |
| O=C(COc1ccc2[nH]c3ccccc3c(=O)c2c1)N1c2ccccc2OCC1c1ccccc1 (configuration not stated) | 0.0412 µM | IC50 (FFLUC_HILL_SLOPE 10.4, FFLUC_R_SQUARED 0.204, PBLUC_HILL_SLOPE 2.2, PBLUC_R_SQUARED 0.922, read-out: LUCIFERASE INFECTION ASSAY - IC50): 0.0152 µM |
| Cc1cc(C)c2nc(N(Cc3ccccc3)C(=O)c3nc(S(C)(=O)=O)ncc3Cl)sc2c1 | > 10 µM | IC50 (FFLUC_HILL_SLOPE 9.88, FFLUC_R_SQUARED 0.449, HEPG2TOX_HILL_SLOPE 6.61, HEPG2TOX_R_SQUARED 0.275, PBLUC_HILL_SLOPE 4.15, PBLUC_R_SQUARED 0.619, read-out: LUCIFERASE INFECTION ASSAY - IC50): 6.34 µM |
| CC(NC(=O)c1ccccc1NC(=O)CSc1ccc2c3c(cccc13)CC2)c1ccccc1 (configuration not stated) | > 10 µM | IC50 (FFLUC_HILL_SLOPE 9.73, FFLUC_R_SQUARED 0.624, HEPG2TOX_HILL_SLOPE 6.39, HEPG2TOX_R_SQUARED 0.223, read-out: LUCIFERASE INFECTION ASSAY - IC50): > 10 µM |
| O=C1Nc2ccc([N+](=O)[O-])cc2C1=C(c1nc2ccccc2s1)c1nc2ccccc2s1 | > 10 µM | IC50 (FFLUC_HILL_SLOPE 9.66, FFLUC_R_SQUARED 0.665, read-out: LUCIFERASE INFECTION ASSAY - IC50): > 10 µM |
| CCn1c2ccccc2c2cc(NC(=O)C(C)OC(=O)C3C(C(=O)OC)=C(C)NC(C)=C3C(=O)OC)ccc21 (configuration not stated) | > 10 µM | IC50 (FFLUC_HILL_SLOPE 9.58, FFLUC_R_SQUARED 0.157, read-out: LUCIFERASE INFECTION ASSAY - IC50): > 10 µM |
| O=C(COc1ccc([N+](=O)[O-])c2cccnc12)Nc1ccc(C(F)(F)F)cc1 | > 10 µM | IC50 (FFLUC_HILL_SLOPE 10, FFLUC_R_SQUARED 0.0627, PBLUC_HILL_SLOPE 68.1, PBLUC_R_SQUARED 0.146, read-out: LUCIFERASE INFECTION ASSAY - IC50): 9.89 µM |

| SMILES | IC90 | further results |
| --- | --- | --- |
| O=C1Nc2ccc(Cl)cc2/C1=C/c1nn(Cc2ccccc2)cc1-c1cccnc1 | > 10 µM | IC50 (FFLUC_HILL_SLOPE 9.69, FFLUC_R_SQUARED 0.424, PBLUC_HILL_SLOPE 9.27, PBLUC_R_SQUARED 0.306, read-out: LUCIFERASE INFECTION ASSAY - IC50): 8.59 µM |
| CCOC(=O)c1c(N)sc(Cc2sc(N)c(C(=O)OCC)c2-c2ccccc2)c1-c1ccccc1 | 5.92 µM | IC50 (FFLUC_HILL_SLOPE 10.1, FFLUC_R_SQUARED 0.631, HEPG2TOX_HILL_SLOPE 3.62, HEPG2TOX_R_SQUARED 0.944, PBLUC_HILL_SLOPE 88.7, PBLUC_R_SQUARED 0.482, read-out: LUCIFERASE INFECTION ASSAY - IC50): 5.77 µM |
| O=S(=O)(Nc1ccc(Cl)cc1)c1cc(NC(=S)Nc2ccc(Oc3ccccc3)cc2)ccc1N1CCCCC1 | > 10 µM | IC50 (FFLUC_HILL_SLOPE 10.3, FFLUC_R_SQUARED 0.0303, PBLUC_HILL_SLOPE 13.4, PBLUC_R_SQUARED 0.215, read-out: LUCIFERASE INFECTION ASSAY - IC50): > 10 µM |
| CC(C)N(C(=O)CSC1=NC(c2ccccc2)C2=C(N1)/C(=C/c1ccccc1)CCC2)c1ccccc1 (configuration not stated) | 9.39 µM | IC50 (FFLUC_HILL_SLOPE 9.66, FFLUC_R_SQUARED 0.711, HEPG2TOX_HILL_SLOPE 8.12, HEPG2TOX_R_SQUARED 0.779, PBLUC_HILL_SLOPE 2.67, PBLUC_R_SQUARED 0.724, read-out: LUCIFERASE INFECTION ASSAY - IC50): 4.12 µM |
| CCN(CCO)c1ccc(NC2=C(NC(C)=O)C(=O)c3ccccc3C2=O)cc1 | > 10 µM | IC50 (FFLUC_HILL_SLOPE 10.4, FFLUC_R_SQUARED 0.141, HEPG2TOX_HILL_SLOPE 0.681, HEPG2TOX_R_SQUARED 0.905, PBLUC_HILL_SLOPE 1.27, PBLUC_R_SQUARED 0.687, read-out: LUCIFERASE INFECTION ASSAY - IC50): 2.16 µM |
| CC(OC(=O)c1cc2ccccc2cc1O)C(=O)Nc1cccc(S(=O)(=O)N2CCOCC2)c1 (configuration not stated) | > 10 µM | IC50 (FFLUC_HILL_SLOPE 10.4, FFLUC_R_SQUARED 0.221, read-out: LUCIFERASE INFECTION ASSAY - IC50): > 10 µM |
| CS(=O)(=O)C(C#N)=Cc1ccccc1OCc1c(Cl)cccc1Cl | > 8.63 µM | IC50 (FFLUC_HILL_SLOPE 9.87, FFLUC_R_SQUARED 0.717, read-out: LUCIFERASE INFECTION ASSAY - IC50): > 8.63 µM |
| FC(F)(F)c1cc(Nc2ncnc3sc(-c4ccccc4)cc23)ccc1Cl | > 10 µM | IC50 (FFLUC_HILL_SLOPE 9.86, FFLUC_R_SQUARED 0.42, HEPG2TOX_HILL_SLOPE 7.8, HEPG2TOX_R_SQUARED 0.241, read-out: LUCIFERASE INFECTION ASSAY - IC50): > 10 µM |
| CCc1sc2nc(SCC(=O)NC(C)(C#N)C(C)C)n(Cc3ccc(C)cc3)c(=O)c2c1C (configuration not stated) | > 10 µM | IC50 (FFLUC_HILL_SLOPE 10, FFLUC_R_SQUARED 0.698, read-out: LUCIFERASE INFECTION ASSAY - IC50): > 10 µM |
| CCOC(=O)c1sc(SC)c2c1CCc1c[nH]nc1-2 | > 11.2 µM | IC50 (FFLUC_HILL_SLOPE 10.3, FFLUC_R_SQUARED 0.371, read-out: LUCIFERASE INFECTION ASSAY - IC50): > 11.2 µM |
| O=C(NCc1ccccc1)C1=CN2CCN(Cc3cccc(Cl)c3)C(=O)N=C2O1 | > 10 µM | IC50 (FFLUC_HILL_SLOPE 9.9, FFLUC_R_SQUARED 0.0641, read-out: LUCIFERASE INFECTION ASSAY - IC50): > 10 µM |
| COc1cc(-c2cnc3cnc(-c4ccccc4C)cn23)ccc1O | 5.32 µM | IC50 (FFLUC_HILL_SLOPE 9.6, FFLUC_R_SQUARED 0.0922, HEPG2TOX_HILL_SLOPE 3.65, HEPG2TOX_R_SQUARED 0.847, PBLUC_HILL_SLOPE 7.45, PBLUC_R_SQUARED 0.397, read-out: LUCIFERASE INFECTION ASSAY - IC50): 3.96 µM |
| CC(C)Cc1ccc(C(=O)CC(Sc2ccccc2N)c2ccc(C(F)(F)F)cc2)cc1 (configuration not stated) | 0.452 µM | IC50 (FFLUC_HILL_SLOPE 10.1, FFLUC_R_SQUARED 0.429, PBLUC_HILL_SLOPE 1.99, PBLUC_R_SQUARED 0.752, read-out: LUCIFERASE INFECTION ASSAY - IC50): 0.15 µM |
| Cc1cc2[nH]c(C)cc(=O)n2n1 | > 20.2 µM | IC50 (FFLUC_HILL_SLOPE 10.3, FFLUC_R_SQUARED 0.148, read-out: LUCIFERASE INFECTION ASSAY - IC50): > 20.2 µM |
| CCCCNC(=O)c1c(NC(=O)c2cc(F)cc(F)c2)nc2ccccn12 | 1.17 µM | IC50 (FFLUC_HILL_SLOPE 9.87, FFLUC_R_SQUARED 0.392, HEPG2TOX_HILL_SLOPE 0.611, HEPG2TOX_R_SQUARED 0.894, PBLUC_HILL_SLOPE 4.02, PBLUC_R_SQUARED 0.616, read-out: LUCIFERASE INFECTION ASSAY - IC50): 0.679 µM |
